IC50 and MIC data for 26 compounds are collected here from patent publication US9334265B2, “3-amino-pyrazole derivatives useful against tuberculosis” (GLAXO GROUP LIMITED, priority 2010, dated 2016).

In brackets after ≈: the same amount, converted by molar mass. Several values for one entry are separate records, joined by “and”; a condition that tells them apart may be missing. Equal entries are not always repeated. Where two headings read alike, the source gives them in different places.

One test addresses T1, InhA (Mycobacterium tuberculosis, UniProt P9WGR1).
T1 construct: made in house; host or cells: E. coli
The test can be described thus: Mycobacterium tuberculosis InhA Inhibition Assay (Enzyme Assay). The class given is biochemical. The conditions noted are these: 5 nM InhA, 50 μM DDCoA, 50 μM NADH, PIPES buffer pH 6.8, initial velocities of NADH consumption. As to the method: InhA is able to reduce 2-trans enoyl-CoA esters with concomitant oxidation of NADH to NAD^+. The assay format is based on the kinetic detection of NADH consumption.
Assay for InhA inhibition is carried out with mycobacterium recombinant protein expressed and purified form E. coli. Standard assay conditions for the determination of kinetic constants and inhibitors activity use 5 nM of InhA, 50 μM of Dodecenoyl-CoA synthesized and purified as described by Quémard et al (DDCoA) and 50 μM of NADH as substrates, and it is carried out in 30 mM PIPES buffer pH 6.8, containing 0.05% of BSA. […] Triclosan is used as positive control in every experiment. One μl of compounds is added to the wells containing 25 μl of the DDCoA+NADH mix, the reaction is started by adding 50 μl of the enzyme solution. Fluorescence from NADH is followed at room temperature during 20 minutes in a fluorescent plate reader (excitation at 340 nm; emission at 480 nm). IC50 values are determined using initial velocities of NADH consumption. • Quémard A, Sacchettini J C, Dessen A, et al. Enzymatic characterization of the target for isoniazid in Mycobacterium tuberculosis. Biochemistry 1995; 34:8235-41. Results of the Mycobacterium tuberculosis InhA Inhibition Assay (Enzyme Assay)

The test system of test [1] is Mycobacterium tuberculosis H37Rv. The experiment in a line: Mycobacterium tuberculosis H37Rv Inhibition Assay (Whole Cell Assay). The class given is cell-based. The conditions noted are these: ATCC 25618 / H37Rv, H37Rv strain (ATCC25618), Middlebrook 7H9, six days at 37° C., resazurin fluorescence after 48 hours.

T1 sequence (P9WGR1 whole entry, looked up): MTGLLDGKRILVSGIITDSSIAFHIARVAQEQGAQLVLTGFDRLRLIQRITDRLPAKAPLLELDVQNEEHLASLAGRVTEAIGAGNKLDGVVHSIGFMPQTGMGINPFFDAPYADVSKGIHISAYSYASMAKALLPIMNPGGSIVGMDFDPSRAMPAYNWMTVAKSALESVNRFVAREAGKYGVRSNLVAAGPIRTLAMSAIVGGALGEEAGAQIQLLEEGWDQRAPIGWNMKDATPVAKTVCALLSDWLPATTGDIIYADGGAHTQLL

Turning to `Cc1cc(C)n(C(C)c2nnc(Nc3ccn(Cc4cccnc4)n3)s2)n1` (centres unmarked) [Example 4, 5-[1-(3,5-dimethyl-1H-pyrazol-1-yl)ethyl]-N-[1-(3-pyridinylmethyl)-1H-pyrazol-3-yl]-1,3,4-thiadiazol-2-amine], the IC50 on InhA (read-out: IC50 value) is not above 131 nM. The MIC in test [1] is more than 10 µM.

Regarding `Cc1ccn(C(C)c2nnc(Nc3ccn(Cc4ncccc4F)n3)s2)n1` (racemic) [Example 13, N-{1-[(3-fluoro-2-pyridinyl)methyl]-1H-pyrazol-3-yl}-5-[1-(3-methyl-1H-pyrazol-1-yl)ethyl]-1,3,4-thiadiazol-2-amine], the IC50 at InhA (read-out: IC50 value) is not above 130 nM. In test [1], the MIC was not above 4 µM.

In the case of `Cc1csc(C(C)(O)c2nnc(Nc3ccn(Cc4nccc5ccccc45)n3)s2)n1` (centres unmarked) [Example 19, 1-(5-{[1-(1-isoquinolinylmethyl)-1H-pyrazol-3-yl]amino}-1,3,4-thiadiazol-2-yl)-1-(4-methyl-1,3-thiazol-2-yl)ethanol], at InhA (read-out: IC50 value), the IC50 is not above 111 nM. For the same compound, the MIC in test [1] is 4 to 10 µM (≈ 1.8 to 4.5 µg/mL).

Take `Cc1cc(C)n(C(C)c2nnc(Nc3ccn(Cc4ccccn4)n3)s2)n1` (centres unmarked) [Example 5, 5-[1-(3,5-dimethyl-1H-pyrazol-1-yl)ethyl]-N-[1-(2-pyridinylmethyl)-1H-pyrazol-3-yl]-1,3,4-thiadiazol-2-amine]: the IC50 against InhA (IC50 value) was 263 to 1310 nM. The compound further showed an MIC in test [1] of more than 10 µM.

For `Cc1cc(C)n(C(C)c2nnc(Nc3ccn(Cc4ncccc4F)n3)s2)n1` (centres unmarked) [Example 6, 5-[1-(3,5-dimethyl-1H-pyrazol-1-yl)ethyl]-N-{1-[(3-fluoro-2-pyridinyl)methyl]-1H-pyrazol-3-yl}-1,3,4-thiadiazol-2-amine], the IC50 on InhA (read-out: IC50 value) was not above 125 nM. The same compound yielded an MIC in test [1] not above 4 µM.

In the case of `Cc1csc(C(C)(O)c2nnc(Nc3ccn(Cc4cn5ccccc5n4)n3)s2)n1` (centres unmarked) [Example 24, 1-(5-{[1-(imidazo[1,2-a]pyridin-2-ylmethyl)-1H-pyrazol-3-yl]amino}-1,3,4-thiadiazol-2-yl)-1-(4-methyl-1,3-thiazol-2-yl)ethanol], the IC50 on InhA (read-out: IC50 value) lay in the range of 114 to 228 nM. In test [1], this compound yielded an MIC of 4 to 10 µM (≈ 1.75 to 4.39 µg/mL).

At InhA (IC50 value), `Cc1csc(C(C)(O)c2nnc(Nc3ccn(Cc4[nH]ccc(=O)c4F)n3)s2)n1` (centres unmarked) [Example 33, 3-fluoro-2-{[3-({5-[1-hydroxy-1-(4-methyl-1,3-thiazol-2-yl)ethyl]-1,3,4-thiadiazol-2-yl}amino)-1H-pyrazol-1-yl]methyl}-4(1H)-pyridinone] had an IC50 of more than 1150 nM. For the same compound, the MIC in test [1] is more than 10 µM.

As for `Cc1cc(C)n(C(C)c2nnc(Nc3ccn(Cc4nccc(C)c4F)n3)s2)n1` (centres unmarked) [Example 2, 5-[1-(3,5-dimethyl-1H-pyrazol-1-yl)ethyl]-N-{1-[(3-fluoro-4-methyl-2-pyridinyl)methyl]-1H-pyrazol-3-yl}-1,3,4-thiadiazol-2-amine], the IC50 on InhA (read-out: IC50 value) is not above 121 nM. The MIC in test [1] is not above 4 µM.

With `CCOc1cccc(Cn2ccc(Nc3nnc(C(C)n4nc(C)cc4C)s3)n2)n1` (centres unmarked) [Example 36, 5-[1-(3,5-dimethyl-1H-pyrazol-1-yl)ethyl]-N-(1-{[6-(ethyloxy)-2-pyridinyl]methyl}-1H-pyrazol-3-yl)-1,3,4-thiadiazol-2-amine], at InhA (read-out: IC50 value), the IC50 was not above 118 nM. Also, in test [1], the MIC is more than 10 µM.

Take `Cc1ccn(C(C)c2nnc(Nc3ccn(Cc4c(C)noc4C)n3)s2)n1` (centres unmarked) [Example 27, N-{1-[(3,5-dimethyl-4-isoxazolyl)methyl]-1H-pyrazol-3-yl}-5-[1-(3-methyl-1H-pyrazol-1-yl)ethyl]-1,3,4-thiadiazol-2-amine]: the IC50 on InhA (IC50 value) is more than 1300 nM. In addition, the MIC in test [1] was more than 10 µM.

As to `Cc1cc(C)n(C(C)c2nnc(Nc3ccn(Cc4cccnc4F)n3)s2)n1` (centres unmarked) [Example 7, 5-[1-(3,5-dimethyl-1H-pyrazol-1-yl)ethyl]-N-{1-[(2-fluoro-3-pyridinyl)methyl]-1H-pyrazol-3-yl}-1,3,4-thiadiazol-2-amine], the IC50 on InhA (read-out: IC50 value) was not above 125 nM. In test [1], this compound had an MIC of 4 to 10 µM (≈ 1.59 to 3.98 µg/mL).

As for `Cc1csc(C(C)(O)c2nnc(Nc3ccn(Cc4ncccc4C)n3)s2)n1` (centres unmarked) [Example 14, 1-[5-({1-[(3-methyl-2-pyridinyl)methyl]-1H-pyrazol-3-yl}amino)-1,3,4-thiadiazol-2-yl]-1-(4-methyl-1,3-thiazol-2-yl)ethanol], at InhA (IC50 value), the IC50 is ≤ 121 nM and 9.67 nM. The MIC in test [1] is not above 1 µM.

`Cc1csc(C(C)(O)c2nnc(Nc3ccn(Cc4csc(N)n4)n3)s2)n1` (centres unmarked) [Example 17, 1-[5-({1-[(2-amino-1,3-thiazol-4-yl)methyl]-1H-pyrazol-3-yl}amino)-1,3,4-thiadiazol-2-yl]-1-(4-methyl-1,3-thiazol-2-yl)ethanol] displayed an IC50 at InhA (IC50 value) of 238 to 1190 nM. Moreover, the MIC in test [1] was more than 10 µM.

As for `Cc1csc(C(C)(O)c2nnc(Nc3nn(Cc4csc(C)n4)c4ccccc34)s2)n1` (centres unmarked) [Example 45, 1-(4-methyl-1,3-thiazol-2-yl)-1-[5-({1-[(2-methyl-1,3-thiazol-4-yl)methyl]-1H-indazol-3-yl}amino)-1,3,4-thiadiazol-2-yl]ethanol], on InhA (IC50 value), the IC50 fell in the range of 213 to 1060 nM. Further, the MIC in test [1] was more than 10 µM.

The compound `Cc1csc(C(C)(O)c2nnc(Nc3ccn(Cc4cnn(C)c4)n3)s2)n1` (centres unmarked) [Example 25, 1-[5-({1-[(1-methyl-1H-pyrazol-4-yl)methyl]-1H-pyrazol-3-yl}amino)-1,3,4-thiadiazol-2-yl]-1-(4-methyl-1,3-thiazol-2-yl)ethanol] gave an IC50 on InhA (IC50 value) of 248 to 1240 nM. This compound also displayed an MIC in test [1] of more than 10 µM.

In turn, `CCOc1ncccc1Cn1ccc(Nc2nnc(C(C)n3nc(C)cc3C)s2)n1` (centres unmarked) [Example 11, 5-[1-(3,5-dimethyl-1H-pyrazol-1-yl)ethyl]-N-(1-{[2-(ethyloxy)-3-pyridinyl]methyl}-1H-pyrazol-3-yl)-1,3,4-thiadiazol-2-amine] came in with an IC50 against InhA (IC50 value) of more than 1180 nM. This compound had an MIC in test [1] of more than 10 µM.

On InhA (IC50 value), `CCOc1cnc(Cn2ccc(Nc3nnc(C(C)(O)c4nc(C)cs4)s3)n2)c(F)c1` (centres unmarked) [Example 30, 1-{5-[(1-{[5-(ethyloxy)-3-fluoro-2-pyridinyl]methyl}-1H-pyrazol-3-yl)amino]-1,3,4-thiadiazol-2-yl}-1-(4-methyl-1,3-thiazol-2-yl)ethanol] returned an IC50 of 217 to 1080 nM. In test [1], this compound gave an MIC of more than 10 µM.

In the case of `Cc1cc(C)n(C(C)c2nnc(Nc3ccn(Cc4ncc(Cl)cc4Cl)n3)s2)n1` (centres unmarked) [Example 9, N-{1-[(3,5-dichloro-2-pyridinyl)methyl]-1H-pyrazol-3-yl}-5-[1-(3,5-dimethyl-1H-pyrazol-1-yl)ethyl]-1,3,4-thiadiazol-2-amine], the IC50 on InhA (read-out: IC50 value) is not above 111 nM. Moreover, the MIC in test [1] is more than 10 µM.

`Cc1csc(C(C)(O)c2nnc(Nc3ccn(Cc4ncccc4O)n3)s2)n1` (centres unmarked) [Example 16, 2-{[3-({5-[1-hydroxy-1-(4-methyl-1,3-thiazol-2-yl)ethyl]-1,3,4-thiadiazol-2-yl}amino)-1H-pyrazol-1-yl]methyl}-3-pyridinol] registered an MIC in test [1] of more than 10 µM.

For the compound `Cc1csc([C@@](C)(O)c2nnc(Nc3ccn(Cc4ncccc4F)n3)s2)n1` (single isomer, unassigned) [Example 42], the half-maximal inhibitory concentration (IC50) against InhA (IC50 value) lay in the range of 240 to 1200 nM. Moreover, the MIC in test [1] was more than 10 µM.

As for `Cc1cc(C)n(C(C)c2nnc(Nc3ccn(Cc4cnc(C)c(Cl)c4)n3)s2)n1` (centres unmarked) [Example 8, N-{1-[(5-chloro-6-methyl-3-pyridinyl)methyl]-1H-pyrazol-3-yl}-5-[1-(3,5-dimethyl-1H-pyrazol-1-yl)ethyl]-1,3,4-thiadiazol-2-amine], the half-maximal inhibitory concentration (IC50) at InhA (read-out: IC50 value) was not above 117 nM. For the same compound, the MIC in test [1] was more than 10 µM.

`Cc1csc(C(C)(O)c2nnc(Nc3ccn(Cc4cccc5cccnc45)n3)s2)n1` (centres unmarked) [Example 20, 1-(4-methyl-1,3-thiazol-2-yl)-1-(5-{[1-(8-quinolinylmethyl)-1H-pyrazol-3-yl]amino}-1,3,4-thiadiazol-2-yl)ethanol]: the IC50 on InhA (read-out: IC50 value) is not above 111 nM. Further, in test [1], the minimum inhibitory concentration (MIC) was not above 4 µM.

With `Cc1csc(C(C)(O)c2nnc(Nc3ccn(Cc4c(C)noc4C)n3)s2)n1` (centres unmarked) [Example 26, 1-[5-({1-[(3,5-dimethyl-4-isoxazolyl)methyl]-1H-pyrazol-3-yl}amino)-1,3,4-thiadiazol-2-yl]-1-(4-methyl-1,3-thiazol-2-yl)ethanol], the IC50 at InhA (IC50 value) is more than 1200 nM. In test [1], the MIC was more than 10 µM.

For the compound `Cc1csc(C(C)(O)c2nnc(Nc3ccn(Cc4ccc5ccccc5n4)n3)s2)n1` (centres unmarked) [Example 15, 1-(4-methyl-1,3-thiazol-2-yl)-1-(5-{[1-(2-quinolinylmethyl)-1H-pyrazol-3-yl]amino}-1,3,4-thiadiazol-2-yl)ethanol], at InhA (read-out: IC50 value), the IC50 was not above 111 nM. The compound also registered an MIC in test [1] not above 4 µM.

Regarding `Cc1ccn(C(C)c2nnc(Nc3ccn(Cc4csc(C)n4)n3)s2)n1` (centres unmarked) [Example 23, 5-[1-(3-methyl-1H-pyrazol-1-yl)ethyl]-N-{1-[(2-methyl-1,3-thiazol-4-yl)methyl]-1H-pyrazol-3-yl}-1,3,4-thiadiazol-2-amine], at InhA (read-out: IC50 value), the IC50 is 129 to 259 nM. In test [1], this compound yielded an MIC of 4 to 10 µM (≈ 1.55 to 3.87 µg/mL).

Compound `Cc1csc([C@](C)(O)c2nnc(Nc3ccn(Cc4csc(C)n4)n3)s2)n1` (single isomer, unassigned) [Example 43] came in with an IC50 at InhA (IC50 value) not above 119 nM.
